In experiment [1] the target is T1, baculovirus-expressed ALK (Homo sapiens, UniProt Q9UM73).
T1 construct: host or cells: baculovirus expression system
The experiment in a line: ALK Kinase Assay (ELISA-type, time-resolved fluorescence). Format: biochemical. In a few lines: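 Plates coated with phospholipase C-γ substrate (10 μg/mL in TBS); reaction started with 30 ng/ml ALK and run 15 min at 37° C. Phosphorylated substrate detected with Eu-N1-labeled PT66 antibody. IC50 from sigmoidal variable-slope fit of percent inhibition vs log concentration.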
In general terms: In an ELISA, binding on a coated surface is turned into a signal by an enzyme label.

Experiment [2] has as its target T2, c-Met (cytoplasmic domain) (Homo sapiens, UniProt P08581).
T2 construct: 10 ng/mL c-Met (cytoplasmic domain, Invitrogen Corporation #PV3143); purchased Invitrogen Corporation PV3143
In words: c-Met Kinase Assay (same methods as for ALK, with modifications). Format: biochemical. In a few lines:
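Plates were coated with phospholipase C-γ substrate (10 μg/mL) in TBS, and the reaction was started with 10 ng/mL c-Met cytoplasmic domain and run 15 min at 37 °C. Phosphoproduct was detected with Eu-N1-labelled PT66 antibody. IC50 came from a variable-slope sigmoidal fit of percent inhibition vs log concentration.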

Where [3] appears, read: ALK kinase inhibition, 1 μM ATP (Km level), read-out: ALK Activity.
[4] abbreviates: c-Met kinase inhibition, 1 μM ATP (Km level), read-out: cMet Activity.
[5] abbreviates: 1 μM ATP (Km level), 30 ng/ml ALK, 37° C., 15 minutes, read-out: ALK Activity (ALK kinase inhibition, IC50 class).
Where [6] appears, read: 1 μM ATP (Km level), 10 ng/mL c-Met, read-out: cMet Activity (c-Met kinase inhibition, IC50 class).
[7] abbreviates: ALK kinase inhibition, 1 μM ATP, read-out: ALK Activity.
[8] abbreviates: c-Met kinase inhibition, 1 μM ATP, read-out: cMet Activity.
The mark [9] stands for this setting: 1 μM ATP (Km level), read-out: ALK Activity (ALK Kinase Inhibition, IC50).
Where [10] appears, read: 1 μM ATP (Km level), read-out: cMet Activity (c-Met Kinase Inhibition, IC50).

Like-named read-outs stand apart in the source and are kept apart here. A value given as a limit tells only on which side of the number the result lay.

T1 sequence (Q9UM73 19-1620): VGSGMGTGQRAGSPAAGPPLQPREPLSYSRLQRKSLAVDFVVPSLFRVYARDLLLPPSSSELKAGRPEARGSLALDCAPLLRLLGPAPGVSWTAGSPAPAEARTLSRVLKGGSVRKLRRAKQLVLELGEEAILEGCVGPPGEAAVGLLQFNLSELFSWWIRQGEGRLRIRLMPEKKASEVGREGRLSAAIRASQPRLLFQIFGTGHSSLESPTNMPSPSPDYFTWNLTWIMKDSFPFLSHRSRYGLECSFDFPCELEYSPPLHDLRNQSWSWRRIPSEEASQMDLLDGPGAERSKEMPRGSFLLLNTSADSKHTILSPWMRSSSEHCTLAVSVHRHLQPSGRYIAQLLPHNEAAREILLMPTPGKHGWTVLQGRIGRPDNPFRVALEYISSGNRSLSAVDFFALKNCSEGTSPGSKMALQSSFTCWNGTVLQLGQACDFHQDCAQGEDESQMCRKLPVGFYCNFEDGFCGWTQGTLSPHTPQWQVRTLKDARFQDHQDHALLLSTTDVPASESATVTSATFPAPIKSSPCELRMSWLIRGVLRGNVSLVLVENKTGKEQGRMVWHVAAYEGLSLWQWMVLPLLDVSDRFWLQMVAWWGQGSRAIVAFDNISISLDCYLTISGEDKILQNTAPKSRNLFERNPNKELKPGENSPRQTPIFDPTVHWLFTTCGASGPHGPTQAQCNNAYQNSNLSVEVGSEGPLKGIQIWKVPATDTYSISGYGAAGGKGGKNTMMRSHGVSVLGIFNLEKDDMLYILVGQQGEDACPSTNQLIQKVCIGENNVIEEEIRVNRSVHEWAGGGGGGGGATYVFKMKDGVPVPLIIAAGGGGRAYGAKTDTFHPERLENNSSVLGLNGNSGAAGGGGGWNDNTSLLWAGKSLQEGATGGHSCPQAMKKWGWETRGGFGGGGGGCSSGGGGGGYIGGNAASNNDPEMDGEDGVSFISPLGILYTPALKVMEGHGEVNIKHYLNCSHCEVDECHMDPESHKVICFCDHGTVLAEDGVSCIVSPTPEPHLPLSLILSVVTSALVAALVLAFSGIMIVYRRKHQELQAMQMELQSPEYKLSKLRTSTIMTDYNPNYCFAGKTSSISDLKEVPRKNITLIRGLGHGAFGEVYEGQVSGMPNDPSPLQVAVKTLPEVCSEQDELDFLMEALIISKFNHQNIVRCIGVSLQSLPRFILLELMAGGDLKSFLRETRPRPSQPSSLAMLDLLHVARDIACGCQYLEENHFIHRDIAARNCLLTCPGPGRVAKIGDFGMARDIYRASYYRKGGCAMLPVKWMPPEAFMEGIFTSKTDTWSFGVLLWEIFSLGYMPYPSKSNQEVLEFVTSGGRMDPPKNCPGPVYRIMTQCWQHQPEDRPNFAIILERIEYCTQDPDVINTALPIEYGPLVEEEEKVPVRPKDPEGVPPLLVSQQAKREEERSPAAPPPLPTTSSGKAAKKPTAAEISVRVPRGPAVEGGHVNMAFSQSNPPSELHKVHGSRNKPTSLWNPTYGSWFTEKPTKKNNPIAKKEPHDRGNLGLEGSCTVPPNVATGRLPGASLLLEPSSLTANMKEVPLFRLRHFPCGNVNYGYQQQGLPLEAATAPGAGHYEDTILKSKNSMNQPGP
T2 sequence (P08581 956-1390 limits assumed): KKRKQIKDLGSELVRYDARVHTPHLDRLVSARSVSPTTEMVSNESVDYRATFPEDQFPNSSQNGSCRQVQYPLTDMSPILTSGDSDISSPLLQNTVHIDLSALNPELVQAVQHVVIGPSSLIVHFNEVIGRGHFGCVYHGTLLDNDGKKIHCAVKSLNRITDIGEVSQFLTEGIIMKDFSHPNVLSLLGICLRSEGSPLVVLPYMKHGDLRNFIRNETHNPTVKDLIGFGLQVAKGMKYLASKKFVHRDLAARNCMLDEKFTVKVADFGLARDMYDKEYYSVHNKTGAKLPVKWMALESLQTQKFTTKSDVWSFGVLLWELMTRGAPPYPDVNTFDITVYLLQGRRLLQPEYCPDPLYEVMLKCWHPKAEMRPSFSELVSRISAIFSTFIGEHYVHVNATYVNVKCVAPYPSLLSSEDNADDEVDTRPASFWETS

Take `COCCN1CCc2ccc(Nc3ncc(Cl)c(NCC(C)(C)NS(C)(=O)=O)n3)cc2CC1` [Example 305, N-(2-{5-Chloro-2-[3-(2-methoxy-ethyl)-2,3,4,5-tetrahydro-1H-benzo[d]azepin-7-ylamino]-pyrimidin-4-ylamino}-1,1-dimethyl-ethyl)-methanesulfonamide]: the IC50 was 100 to 1000 nM in experiment [1] (setting [3]) and over 10000 nM in experiment [2] (setting [4]).
On to `CCCCNC(=O)c1ccccc1Nc1nc(Nc2ccc3c(c2)CCCC(=O)N3)ncc1Cl` [Example 1029, N-Butyl-2-[5-chloro-2-(2-oxo-2,3,4,5-tetrahydro-1H-benzo[b]azepin-7-ylamino)-pyrimidin-4-ylamino]-benzamide], for which the IC50 fell in the range of 100 to 1000 nM in experiment [1] (setting [5]) and 1000 to 10000 nM in experiment [2] (setting [6]).
Take `COCCN1CCc2ccc(Nc3ncc(Cl)c(N[C@@H]4CCCC[C@H]4O)n3)cc2CC1` (relative stereo) [Example 318, trans-2-{5-Chloro-2-[3-(2-methoxy-ethyl)-2,3,4,5-tetrahydro-1H-benzo[d]azepin-7-ylamino]-pyrimidin-4-ylamino}-cyclohexanol]: the IC50 in experiment [1] (setting [3]) is 1000 to 10000 nM; in experiment [2] (setting [4]), over 10000 nM.
For the compound `COc1cc2c(cc1Nc1ncc(C(F)(F)F)c(Nc3ccc(N4CCOCC4)cc3OC)n1)CCOC(=O)N2C` [Example 1514, 3-Methoxy-2-[4-(2-methoxy-4-morpholin-4-yl-phenylamino)-5-trifluoromethyl-pyrimidin-2-ylamino]-5-methyl-8,9-dihydro-5H-7-oxa-5-aza-benzocyclohepten-6-one], the figures for the IC50 in experiment [1] (setting [7]) and in experiment [2] (setting [8]) were under 100 nM and over 10000 nM, respectively.
Regarding `CNC(=O)c1cccc(F)c1Nc1nc(Nc2ccc3c(c2)N(C(=O)CN2CCCC2)CCCC3(C)C)ncc1Cl` [Example 1603, 2-{5-Chloro-2-[5,5-dimethyl-1-(2-pyrrolidin-1-yl-acetyl)-2,3,4,5-tetrahydro-1H-benzo[b]azepin-8-ylamino]-pyrimidin-4-ylamino}-3-fluoro-N-methyl-benzamide], the IC50 in experiment [1] (setting [7]) and in experiment [2] (setting [8]) was 100 to 1000 nM each time.
For the compound `COc1cc2c(cc1Nc1ncc(Cl)c(N[C@@H]3CCCC[C@H]3NS(C)(=O)=O)n1)CCN(CC(C)(F)F)CC2` [Example 784, N-((1R,2R)-2-{5-Chloro-2-[3-(2,2-difluoro-propyl)-8-methoxy-2,3,4,5-tetrahydro-1H-benzo[d]azepin-7-ylamino]-pyrimidin-4-ylamino}-cyclohexyl)-methanesulfonamide], the IC50 in experiment [1] (setting [9]) was under 100 nM; in experiment [2] (setting [10]) it was over 10000 nM.
In the case of `CNC(=O)c1cccc(F)c1Nc1nc(Nc2ccc3c(c2)N(C(C)=O)CC(=O)NC3)ncc1Cl` [Example 1877, 2-[2-(1-Acetyl-3-oxo-2,3,4,5-tetrahydro-1H-benzo[e][1,4]diazepin-8-ylamino)-5-chloro-pyrimidin-4-ylamino]-3-fluoro-N-methyl-benzamide], the IC50 in experiment [1] (setting [3]) and in experiment [2] (setting [4]) was under 100 nM each time.
For the compound `Cn1ccnc1-c1ccccc1Nc1nc(Nc2cccc3c2OCCCC3(C)C)ncc1Cl` [Example 879, 5-Chloro-N*2*-(5,5-dimethyl-2,3,4,5-tetrahydro-benzo[b]oxepin-9-yl)-N*4*-[2-(1-methyl-1H-imidazol-2-yl)-phenyl]-pyrimidine-2,4-diamine], the IC50 in experiment [1] (setting [9]) is 100 to 1000 nM; in experiment [2] (setting [10]), over 10000 nM.
In the case of `CNC(=O)c1cc(-c2cnn(C)c2)cc(F)c1Nc1nc(Nc2ccc3c(c2)CCN(CCOC)CC3)ncc1Cl` [Example 1423, 2-{5-Chloro-2-[3-(2-methoxy-ethyl)-2,3,4,5-tetrahydro-1H-benzo[d]azepin-7-ylamino]-pyrimidin-4-ylamino}-3-fluoro-N-methyl-5-(1-methyl-1H-pyrazol-4-yl)-benzamide], the IC50 in experiment [1] (setting [5]) and in experiment [2] (setting [6]) was under 100 nM each time.
In the case of `CCN1C(=O)CCCc2c1ccc(Nc1ncc(Cl)c(Nc3ccc(OC)cc3C(=O)OC(C)C)n1)c2OC` [Example 608, 2-[5-Chloro-2-(1-ethyl-6-methoxy-2-oxo-2,3,4,5-tetrahydro-1H-benzo[b]azepin-7-ylamino)-pyrimidin-4-ylamino]-5-methoxy-benzoic acid isopropyl ester], the IC50 in experiment [1] (setting [9]) is 1000 to 10000 nM; in experiment [2] (setting [10]), over 10000 nM.
For `CNC(=O)c1ccccc1Nc1nc(Nc2cc3c(cc2OC)CCN(CC(F)F)CC3)ncc1Cl` [Example 766, 2-{5-Chloro-2-[3-(2,2-difluoro-ethyl)-8-methoxy-2,3,4,5-tetrahydro-1H-benzo[d]azepin-7-ylamino]-pyrimidin-4-ylamino}-N-methyl-benzamide], in that order: under 100 nM and 1000 to 10000 nM.
Consider `CNC(=O)c1cccc(F)c1Nc1nc(Nc2ccc3c(c2)NC(=O)CCO3)ncc1Cl` [Example 1221, 2-[5-Chloro-2-(8-oxo-6,7,8,9-tetrahydro-5-oxa-9-aza-benzocyclohepten-2-ylamino)-pyrimidin-4-ylamino]-3-fluoro-N-methyl-benzamide], for which the IC50 was 100 to 1000 nM in experiment [1] (setting [5]) and under 100 nM in experiment [2] (setting [6]).
Consider `CNC(=O)c1sccc1Nc1nc(Nc2ccc3c(c2)NC(=O)CN(C(C)=O)C3)ncc1Cl` [Example 1849, 3-[2-(4-Acetyl-2-oxo-2,3,4,5-tetrahydro-1H-benzo[e][1,4]diazepin-8-ylamino)-5-chloro-pyrimidin-4-ylamino]-thiophene-2-carboxylic acid methyl amide], for which the IC50 was 100 to 1000 nM in experiment [1] (setting [7]) and under 100 nM in experiment [2] (setting [8]).
For `CN1CCN(S(C)(=O)=O)Cc2ccc(Nc3ncc(Cl)c(N[C@@H]4CCCC[C@H]4NS(C)(=O)=O)n3)cc21` [Example 477, N-{(1R,2R)-2-[5-Chloro-2-(4-methanesulfonyl-1-methyl-2,3,4,5-tetrahydro-1H-benzo[e][1,4]diazepin-8-ylamino)-pyrimidin-4-ylamino]-cyclohexyl}-methanesulfonamide], the IC50 is under 100 nM in experiment [1] (setting [3]) and 1000 to 10000 nM in experiment [2] (setting [4]).
As to `COc1cc(N2CCOCC2)ccc1Nc1nc(Nc2cc(F)cc3c2OCCNC3=O)ncc1Cl` [Example 1684, 9-[5-Chloro-4-(2-methoxy-4-morpholin-4-yl-phenylamino)-pyrimidin-2-ylamino]-7-fluoro-3,4-dihydro-2H-benzo[f][1,4]oxazepin-5-one], the results for the IC50 in experiment [1] (setting [7]) and in experiment [2] (setting [8]) were under 100 nM and over 10000 nM, respectively.
Consider `COCCN1CCc2ccc(Nc3ncc(Cl)c(Nc4ccccc4-c4nc(C(F)(F)F)c[nH]4)n3)cc2CC1` [Example 1011, 5-Chloro-N*2*-[3-(2-methoxy-ethyl)-2,3,4,5-tetrahydro-1H-benzo[d]azepin-7-yl]-N*4*-[2-(4-trifluoromethyl-1H-imidazol-2-yl)-phenyl]-pyrimidine-2,4-diamine], for which the IC50 in experiment [1] (setting [9]) is under 100 nM; in experiment [2] (setting [10]), 100 to 1000 nM.
For `CCN1CC(=O)N(C)c2cc(Nc3ncc(Cl)c(Nc4ccc(OC)cc4-n4cccn4)n3)c(OC)cc2C1` [Example 742, 8-[5-Chloro-4-(4-methoxy-2-pyrazol-1-yl-phenylamino)-pyrimidin-2-ylamino]-4-ethyl-7-methoxy-1-methyl-1,3,4,5-tetrahydro-benzo[e][1,4]diazepin-2-one], in that order: under 100 nM and over 10000 nM.
For `COc1cc2c(cc1Nc1ncc(Cl)c(NC3(CC(N)=O)CCCCC3)n1)CCN(CCO)CC2` [Example 849, 2-(1-{5-Chloro-2-[3-(2-hydroxy-ethyl)-8-methoxy-2,3,4,5-tetrahydro-1H-benzo[d]azepin-7-ylamino]-pyrimidin-4-ylamino}-cyclohexyl)-acetamide], in that order: under 100 nM and over 10000 nM.
Take `CN(C)CCN1CCCC(C)(C)c2ccc(Nc3ncc(Cl)c(N[C@H]4[C@@H](C(N)=O)[C@@H]5C=C[C@H]4C5)n3)cc21` [Example 1640, (1S,2S,3R,4R)-3-{5-Chloro-2-[1-(2-dimethylamino-ethyl)-5,5-dimethyl-2,3,4,5-tetrahydro-1H-benzo[b]azepin-8-ylamino]-pyrimidin-4-ylamino}-bicyclo[2.2.1]hept-5-ene-2-carboxylic acid amide]: the IC50 in experiment [1] (setting [7]) and in experiment [2] (setting [8]) was under 100 nM throughout.
Regarding `COc1cc2c(cc1Nc1ncc(Cl)c(Nc3cccc(OCC#N)c3)n1)CCOC(=O)N2C` [Example 1510, {3-[5-Chloro-2-(3-methoxy-5-methyl-6-oxo-5,6,8,9-tetrahydro-7-oxa-5-aza-benzocyclohepten-2-ylamino)-pyrimidin-4-ylamino]-phenoxy}-acetonitrile], the results for the IC50 in experiment [1] (setting [7]) and in experiment [2] (setting [8]) were under 100 nM and over 10000 nM, respectively.
On to “N-((1R,2R)-2-{5-Chloro-2-[7-(2,2,2-trifluoro-ethylamino)-6,7,8,9-tetrahydro-5H-benzocyclohepten-2-ylamino]-pyrimidin-4-ylamino}-cyclohexyl)-methanesulfonamide [Example 688]”, for which the IC50 in experiment [1] (setting [9]) was 100 to 1000 nM; in experiment [2] (setting [10]), over 10000 nM.
As for `C#CCNC(=O)c1cccc(F)c1Nc1nc(Nc2ccc3c(c2)CCN(CCOC)CC3)ncc1Cl` [Example 1403, 2-{5-Chloro-2-[3-(2-methoxy-ethyl)-2,3,4,5-tetrahydro-1H-benzo[d]azepin-7-ylamino]-pyrimidin-4-ylamino}-3-fluoro-N-prop-2-ynyl-benzamide], the IC50 in experiment [1] (setting [5]) and in experiment [2] (setting [6]) was under 100 nM throughout.

The record behind these values is US8148391B2 (Cephalon, Inc., priority 2006, dated 2012).
